Experiments:
furin = details: read-out: Ki furin; cited from earlier work
[1] = biological target: recombinant soluble human furin (Homo sapiens, UniProt P09958); experiment: Enzyme kinetics with furin; format: biochemical
[2] = system: fowl plague virus hemagglutinin cleavage in MDCK cells; format: cell-based, influenza virus A/FPV/Rostock/34 (H7N1); details: FPV-infected MDCK cells; data not shown
[3] = Stability of stock solution in water; format: physicochemical; details: room temperature, two weeks
[4] = system: fowl plague virus (FPV, Rostock strain); details: 25 μM inhibitor, up to 72 h

Sequence of recombinant soluble human furin (P09958 108-715 limits assumed): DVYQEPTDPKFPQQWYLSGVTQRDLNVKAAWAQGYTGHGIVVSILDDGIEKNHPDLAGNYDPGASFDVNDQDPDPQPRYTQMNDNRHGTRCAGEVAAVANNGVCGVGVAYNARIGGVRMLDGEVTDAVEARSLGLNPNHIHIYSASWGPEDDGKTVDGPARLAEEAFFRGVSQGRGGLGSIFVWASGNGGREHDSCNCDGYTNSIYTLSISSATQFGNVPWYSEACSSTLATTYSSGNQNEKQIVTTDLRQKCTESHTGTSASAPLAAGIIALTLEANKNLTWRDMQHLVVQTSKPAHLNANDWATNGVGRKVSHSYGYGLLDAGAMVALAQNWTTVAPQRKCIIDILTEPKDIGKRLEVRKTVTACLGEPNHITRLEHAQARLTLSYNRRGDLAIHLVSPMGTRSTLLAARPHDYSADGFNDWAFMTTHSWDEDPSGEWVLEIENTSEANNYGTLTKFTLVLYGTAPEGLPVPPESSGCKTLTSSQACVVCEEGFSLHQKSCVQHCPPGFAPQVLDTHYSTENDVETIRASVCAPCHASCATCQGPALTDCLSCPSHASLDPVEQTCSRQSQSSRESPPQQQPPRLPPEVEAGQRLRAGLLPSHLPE

Row | Compound | Ki [1] [µM] | activity in the cellular HA cleavage assay compared with inhibitor 15 [2] | further results
1 | nona-D-arginine | – | – | Ki (furin): 0.0013 µM
2 | N=C(N)c1ccccc1 [benzamidine, reference compound] | 750 | – | –
3 | CCCCCCCCCC(=O)N[C@@H](CCCNC(=N)N)C(=O)N[C@H](C(=O)N[C@@H](CCCNC(=N)N)C(=O)NCc1ccc(C(=N)N)cc1)C(C)C [compound 16] | – | Very similar results | –
4 | CC(C)[C@H](NC(=O)[C@H](CCCNC(=N)N)NC(=O)Cc1ccccc1)C(=O)N[C@@H](CCCNC(=N)N)C(=O)NCc1ccc(C(=N)N)cc1 [compound 15, Phac-Arg-Val-Arg-4-(amidomethyl)benzamidine] | – | – | change in HPLC elution profile on storage [3]: could not detect any change; viability of the cells in the presence of inhibitor ([4]; MDCK cells): not noticeably influenced; delay of virus release versus untreated infected cultures ([4]; MOI 10^-5, MDCK cells): about 24 h
5 | CC(=O)N[C@@H](CCCNC(=N)N)C(=O)N[C@H](C(=O)N[C@@H](CCCNC(=N)N)C(=O)NCc1ccc(C(=N)N)cc1)C(C)C [compound 17] | – | reduced activity | –
6 | N=C(N)c1ccc(CN)cc1 [compound 1, 4-amidinobenzylamine] | 1200 | – | –
